Data from ChEMBL document CHEMBL4823262, “Discovery of a Vitamin D Receptor-Silent Vitamin D Derivative That Impairs Sterol Regulatory Element-Binding Protein In Vivo” (J Med Chem, 2021).
Calls of active or inactive are those of the source. The calls are words filed in the database; no cut-off is given here.

Assays:
Vitamin D3 receptor = target: T1, Vitamin D3 receptor (Homo sapiens, UniProt P11473); assay: Agonist activity at VDR (unknown origin) expressed in CHO-K1 cells at 5 uM by luciferase reporter assay; type: cell-based; conditions: cho-k1, 5 µM
T1 sequence (P11473 whole entry): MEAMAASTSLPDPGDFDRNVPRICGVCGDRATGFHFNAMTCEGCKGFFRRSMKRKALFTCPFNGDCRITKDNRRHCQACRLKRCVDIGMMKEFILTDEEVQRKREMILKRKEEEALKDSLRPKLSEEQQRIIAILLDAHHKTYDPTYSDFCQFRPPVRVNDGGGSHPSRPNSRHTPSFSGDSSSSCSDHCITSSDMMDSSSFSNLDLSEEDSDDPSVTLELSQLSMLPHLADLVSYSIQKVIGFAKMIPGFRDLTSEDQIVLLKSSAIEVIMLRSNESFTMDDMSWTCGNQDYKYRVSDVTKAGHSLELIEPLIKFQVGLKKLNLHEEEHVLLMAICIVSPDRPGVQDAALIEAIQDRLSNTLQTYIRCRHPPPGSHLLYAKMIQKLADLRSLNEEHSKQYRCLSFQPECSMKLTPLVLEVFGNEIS

[1] = target: T2, Sterol regulatory element-binding protein 1 (Homo sapiens, UniProt P36956); assay: Inhibition of SREBP (unknown origin) expressed in CHO-K1 cells by luciferase reporter assay; type: cell-based
T2 sequence (P36956 whole entry): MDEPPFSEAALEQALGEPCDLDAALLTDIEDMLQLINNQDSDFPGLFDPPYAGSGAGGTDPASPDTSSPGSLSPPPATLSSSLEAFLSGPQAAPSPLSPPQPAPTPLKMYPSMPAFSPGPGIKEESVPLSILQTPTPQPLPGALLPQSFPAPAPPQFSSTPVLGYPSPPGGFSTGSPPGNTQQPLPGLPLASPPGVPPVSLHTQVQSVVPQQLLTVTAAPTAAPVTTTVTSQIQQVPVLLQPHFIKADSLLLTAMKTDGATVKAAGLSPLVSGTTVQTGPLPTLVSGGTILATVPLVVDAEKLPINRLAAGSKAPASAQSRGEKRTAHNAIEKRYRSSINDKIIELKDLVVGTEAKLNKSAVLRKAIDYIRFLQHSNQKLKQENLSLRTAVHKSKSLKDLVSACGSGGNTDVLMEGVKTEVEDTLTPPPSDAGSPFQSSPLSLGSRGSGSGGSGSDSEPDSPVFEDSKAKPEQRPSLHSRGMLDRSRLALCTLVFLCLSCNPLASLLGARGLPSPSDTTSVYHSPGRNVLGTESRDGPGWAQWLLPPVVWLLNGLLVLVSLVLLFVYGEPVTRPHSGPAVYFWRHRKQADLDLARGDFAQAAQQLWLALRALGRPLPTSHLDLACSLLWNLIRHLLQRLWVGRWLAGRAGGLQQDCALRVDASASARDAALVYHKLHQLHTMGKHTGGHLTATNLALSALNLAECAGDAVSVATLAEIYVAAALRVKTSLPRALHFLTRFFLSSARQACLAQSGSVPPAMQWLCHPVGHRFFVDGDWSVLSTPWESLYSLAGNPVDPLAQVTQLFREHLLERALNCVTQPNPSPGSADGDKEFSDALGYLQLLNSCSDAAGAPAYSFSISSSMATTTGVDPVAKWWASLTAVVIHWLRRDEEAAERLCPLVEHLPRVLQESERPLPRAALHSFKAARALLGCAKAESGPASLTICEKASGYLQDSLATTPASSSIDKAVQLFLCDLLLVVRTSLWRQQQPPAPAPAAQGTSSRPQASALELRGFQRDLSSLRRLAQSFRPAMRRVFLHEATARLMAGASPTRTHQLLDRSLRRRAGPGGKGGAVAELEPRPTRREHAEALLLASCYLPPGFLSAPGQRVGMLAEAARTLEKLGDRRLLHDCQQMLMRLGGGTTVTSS

[2] = Toxicity in ob/ob mouse assessed as sick at 10 mg/kg, ip administered 5 times per week for 4 weeks; type: organism-based; conditions: in vivo, 672 h
[3] = target: T3, Sterol regulatory element-binding protein cleavage-activating protein (Homo sapiens) (UniProt Q12770); assay: Inhibition of FLAG-tagged SCAP (unknown origin) expressed in CHO-K1 cells assessed as reduction in SCAP protein level at 5 uM after 24 hrs by Western blotting analysis; type: cell-based
T3 sequence (whole entry): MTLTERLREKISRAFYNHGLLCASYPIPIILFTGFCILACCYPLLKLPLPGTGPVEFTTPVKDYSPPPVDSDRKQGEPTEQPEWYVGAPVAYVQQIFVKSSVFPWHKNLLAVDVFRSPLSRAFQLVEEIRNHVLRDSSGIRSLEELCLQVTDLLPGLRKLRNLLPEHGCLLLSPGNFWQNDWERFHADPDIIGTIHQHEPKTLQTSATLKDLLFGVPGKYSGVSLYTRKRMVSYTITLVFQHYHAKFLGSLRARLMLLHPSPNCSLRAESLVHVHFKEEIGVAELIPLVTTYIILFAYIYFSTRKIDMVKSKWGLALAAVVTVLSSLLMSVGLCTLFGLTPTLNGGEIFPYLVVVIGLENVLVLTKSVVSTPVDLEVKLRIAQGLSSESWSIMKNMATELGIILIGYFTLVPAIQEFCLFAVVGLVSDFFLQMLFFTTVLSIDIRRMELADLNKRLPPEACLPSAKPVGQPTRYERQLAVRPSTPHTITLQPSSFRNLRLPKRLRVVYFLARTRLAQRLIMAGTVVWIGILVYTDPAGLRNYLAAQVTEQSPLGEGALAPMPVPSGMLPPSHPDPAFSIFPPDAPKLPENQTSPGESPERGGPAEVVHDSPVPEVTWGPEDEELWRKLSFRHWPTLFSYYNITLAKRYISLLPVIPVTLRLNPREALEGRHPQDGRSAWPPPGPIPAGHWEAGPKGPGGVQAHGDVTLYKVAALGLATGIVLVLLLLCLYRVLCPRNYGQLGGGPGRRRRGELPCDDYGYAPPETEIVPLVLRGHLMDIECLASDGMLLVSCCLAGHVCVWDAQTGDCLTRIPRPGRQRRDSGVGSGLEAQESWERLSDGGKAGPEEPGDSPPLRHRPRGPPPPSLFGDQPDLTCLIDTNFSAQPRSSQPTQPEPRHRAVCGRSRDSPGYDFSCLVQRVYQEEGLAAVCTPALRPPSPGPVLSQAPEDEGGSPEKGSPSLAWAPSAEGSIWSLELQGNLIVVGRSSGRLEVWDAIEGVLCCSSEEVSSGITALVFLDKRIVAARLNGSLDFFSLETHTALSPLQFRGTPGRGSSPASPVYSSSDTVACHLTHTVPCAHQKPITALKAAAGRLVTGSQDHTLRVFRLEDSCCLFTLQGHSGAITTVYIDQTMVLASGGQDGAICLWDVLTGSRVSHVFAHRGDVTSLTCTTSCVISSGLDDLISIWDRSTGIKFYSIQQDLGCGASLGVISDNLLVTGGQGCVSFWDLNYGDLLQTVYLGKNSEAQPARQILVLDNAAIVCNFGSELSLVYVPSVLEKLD

[4] = Effect on serum calcium level in mouse assessed as increase in calcium level at 10 mg/kg, ip administered once daily for 4 days […]; type: ADME, organism-based; conditions: in vivo, 96 h, time 4 day
Mus musculus [5] = species on record: Mus musculus; conditions: Liver, dose 10.0 mg/kg, time 4.0 day
Mus musculus [6] = species on record: Mus musculus; conditions: Liver, dose 10.0 mg/kg, time 4.0 day; remark: listed apart in the source
CHO = assay: Cytotoxicity against Chinese hamster CHO cells by beta-galactosidase reporter gene assay; type: cell-based, Cricetulus griseus
[7] = Toxicity in ob/ob mouse assessed as increase in weight at 10 mg/kg, ip administered 5 times per week for 4 weeks; type: organism-based; conditions: in vivo, 672 h

SMILES: C[C@H](CCCC(C)(C)O)[C@H]1CC[C@H]2/C(=C/Cn3cnnn3)CCC[C@]12C
- Activity (Vitamin D3 receptor): Active

SMILES: C=C1CC[C@H](O)C/C1=C/C=C1\CCC[C@]2(C)[C@@H]([C@H](C)CCCC(C)(C)O)CC[C@@H]12 [CALCIFEDIOL ANHYDROUS]
- IC50 [1]: 1180 nM
- Activity [2]: Toxic
- inhibition [3]: Active
- Activity [4]: Toxic

SMILES: CCCc1cc(-c2nc(-c3ccc(NS(C)(=O)=O)cc3)cs2)ccn1
- IC50 [1]: 700 nM

SMILES: C[C@H](CCC(F)(F)C(C)(C)O)[C@H]1CC[C@H]2/C(=C/Cn3cc(-c4ccc(F)cc4)nn3)CCC[C@]12C
- Activity (Vitamin D3 receptor): Not Active

SMILES: C[C@H](CCCC(O)(C(F)(F)F)C(F)(F)F)[C@H]1CC[C@H]2/C(=C/Cn3cc(-c4ccccc4)nn3)CCC[C@]12C
- inhibition (Mus musculus [5]): Active
- Activity [4]: Toxic
- inhibition (Mus musculus [6]): Active

SMILES: C[C@H](CCCC(C)(C)O)[C@H]1CC[C@H]2/C(=C/Cn3ncnn3)CCC[C@]12C
- Activity (Vitamin D3 receptor): Active

SMILES: C[C@H](CCCC(O)(C(F)(F)F)C(F)(F)F)[C@H]1CC[C@H]2/C(=C/Cn3cc(-c4ccc(F)cc4)nn3)CCC[C@]12C
- inhibition (Mus musculus [5]): Active
- Activity (Vitamin D3 receptor): Not Active
- Activity [4]: Toxic
- inhibition (Mus musculus [6]): Active

SMILES: C[C@H](CCC(F)(F)C(C)(C)O)[C@H]1CC[C@H]2/C(=C/Cn3nnc(-c4ccc(F)cc4)n3)CCC[C@]12C
- Activity (Vitamin D3 receptor): Not Active
- Activity (CHO): Non-Toxic

SMILES: C[C@H](CCC(F)(F)C(C)(C)O)[C@H]1CC[C@H]2/C(=C/Cn3nnnc3-c3ccc(F)cc3)CCC[C@]12C
- Activity (Vitamin D3 receptor): Not Active
- Activity (CHO): Non-Toxic

SMILES: C[C@H](CCCC(C)(C)O)[C@H]1CC[C@H]2/C(=C/Cn3cc(CCCCO)nn3)CCC[C@]12C
- Activity (Vitamin D3 receptor): Active

SMILES: C[C@H](CCCC(C)(C)O)[C@H]1CC[C@H]2/C(=C/Cn3cc(-c4ccccn4)nn3)CCC[C@]12C
- Activity (Vitamin D3 receptor): Active

SMILES: C[C@H](CCC(F)(F)C(C)(C)O)[C@H]1CC[C@H]2/C(=C/Cn3nnnc3-c3ccccc3)CCC[C@]12C
- Activity [2]: Non-Toxic
- Activity [7]: Toxic
- Activity (CHO): Non-Toxic
